Measurements from ChEMBL document CHEMBL1201862, “PubChem BioAssay data set” (2004).
Blank lines part the entries; values can stand above or below the compound they belong to. Active and inactive are the calls of the source.

Key:
Assay type in all cases: functional
[1] = molecular target: Sphingosine 1-phosphate receptor 2 (Homo sapiens, UniProt O95136); experiment: Dose Response Cell Based Assay for Agonists of the S1P2 Receptor of Purchased Analogues. [Related pubchem assays: 729, 843, 854, 736 ]
Chain of Sphingosine 1-phosphate receptor 2 (O95136 whole entry): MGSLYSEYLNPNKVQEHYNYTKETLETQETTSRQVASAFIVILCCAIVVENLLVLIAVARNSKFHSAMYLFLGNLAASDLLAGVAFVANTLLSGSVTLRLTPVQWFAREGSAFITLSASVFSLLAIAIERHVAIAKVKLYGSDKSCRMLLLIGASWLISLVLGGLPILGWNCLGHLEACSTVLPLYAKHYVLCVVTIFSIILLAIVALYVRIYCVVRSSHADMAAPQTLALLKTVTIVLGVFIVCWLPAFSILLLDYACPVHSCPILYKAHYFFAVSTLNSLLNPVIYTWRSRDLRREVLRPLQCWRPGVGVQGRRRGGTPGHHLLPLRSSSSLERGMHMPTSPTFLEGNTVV

[2] = molecular target: T1, Microphthalmia-associated transcription factor (Homo sapiens, UniProt O75030); experiment: reducers of TRPM1 reporter luminescence, concentration series – cell-based, SK-MEL-5, cherry-picked, set 3, MITF inhibitor project, dose response (AID 493073);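 note: SK-MEL-5 melanoma cells with luciferase driven by the MITF target TRPM1 promoter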
T1 sequence (O75030 whole entry): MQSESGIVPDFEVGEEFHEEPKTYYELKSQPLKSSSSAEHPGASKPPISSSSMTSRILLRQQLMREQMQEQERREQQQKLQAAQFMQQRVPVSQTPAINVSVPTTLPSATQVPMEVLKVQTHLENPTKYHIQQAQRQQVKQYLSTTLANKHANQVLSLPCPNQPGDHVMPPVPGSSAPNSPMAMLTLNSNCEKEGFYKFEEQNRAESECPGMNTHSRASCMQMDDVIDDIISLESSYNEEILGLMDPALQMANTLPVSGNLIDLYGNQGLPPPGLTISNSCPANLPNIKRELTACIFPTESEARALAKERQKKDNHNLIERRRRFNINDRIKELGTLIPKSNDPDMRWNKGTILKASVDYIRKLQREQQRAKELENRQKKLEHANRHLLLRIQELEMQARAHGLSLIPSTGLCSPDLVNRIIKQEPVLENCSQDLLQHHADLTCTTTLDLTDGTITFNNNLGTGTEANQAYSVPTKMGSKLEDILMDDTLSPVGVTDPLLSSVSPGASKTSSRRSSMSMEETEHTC

[3] = molecular target: T2, Heat shock factor protein 1 (Mus musculus, UniProt P38532); experiment: enhancement of HSF1-driven luciferase signal – cell-based, NIH3T3, luminescence, dose retest, confirmation (AID 435004);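 note: stress induced by proteasome inhibitor MG132 added 30 min after compound; luciferase reporter driven by HSF1 response element in NIH3T3 cells; actives raise luminescence as potentiators of the MG132 stress response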
T2 sequence (P38532 whole entry): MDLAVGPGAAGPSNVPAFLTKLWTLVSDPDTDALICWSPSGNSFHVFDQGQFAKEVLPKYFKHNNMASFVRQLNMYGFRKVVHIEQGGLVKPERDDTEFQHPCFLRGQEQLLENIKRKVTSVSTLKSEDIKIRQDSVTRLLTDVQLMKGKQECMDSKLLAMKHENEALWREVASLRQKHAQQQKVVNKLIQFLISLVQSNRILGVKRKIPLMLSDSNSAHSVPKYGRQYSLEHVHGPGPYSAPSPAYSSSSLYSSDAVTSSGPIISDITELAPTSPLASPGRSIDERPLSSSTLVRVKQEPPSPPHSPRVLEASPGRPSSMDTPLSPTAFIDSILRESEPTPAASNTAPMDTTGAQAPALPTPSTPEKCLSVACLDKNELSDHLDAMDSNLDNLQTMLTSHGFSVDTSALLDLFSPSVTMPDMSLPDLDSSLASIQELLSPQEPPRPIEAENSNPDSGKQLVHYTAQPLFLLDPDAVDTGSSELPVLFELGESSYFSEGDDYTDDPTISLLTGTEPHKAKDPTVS

[4] = mitochondrial function rescue without frataxin homolog – Friedreich's ataxia, plus single-dose screen, dose response (AID 1465);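 note: yeast depleted of Yfh1p frataxin homolog grown on glycerol needing respiration; WST-1 tetrazolium dye reduction as measure of cellular dehydrogenase metabolic activity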
Oxytocin receptor = Oxytocin receptor (Homo sapiens, UniProt P30559); experiment: Fluorescence-based cell-based high throughput dose response assay for potentiators of Oxytocin Receptor (OXTR). [Related pubchem assays: 434985 (Confirmation screen (OXTR potentiators in triplicate)), 2481 (Summary (OXTR potentiators)), 2445 (Primary screen (OXTR potentiators in singlicate))]
Chain of Oxytocin receptor (P30559 whole entry): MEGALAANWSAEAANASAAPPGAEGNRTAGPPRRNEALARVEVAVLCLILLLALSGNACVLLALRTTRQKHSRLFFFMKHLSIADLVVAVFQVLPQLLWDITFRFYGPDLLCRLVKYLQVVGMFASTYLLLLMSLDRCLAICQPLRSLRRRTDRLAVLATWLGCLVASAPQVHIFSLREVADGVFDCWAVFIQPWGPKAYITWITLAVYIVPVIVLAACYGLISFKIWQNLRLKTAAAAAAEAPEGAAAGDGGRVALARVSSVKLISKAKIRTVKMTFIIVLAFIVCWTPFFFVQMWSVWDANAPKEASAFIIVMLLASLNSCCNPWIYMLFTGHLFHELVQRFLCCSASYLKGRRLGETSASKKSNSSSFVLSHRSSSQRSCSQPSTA

[5] = molecular target: Neuropeptide Y receptor type 2 (Homo sapiens, UniProt P49146); experiment: Fluorescence-based counterscreen for agonists of NPY-Y1: cell-based high-throughput dose response assay for agonists of NPY-Y2.
Chain of Neuropeptide Y receptor type 2 (P49146 whole entry): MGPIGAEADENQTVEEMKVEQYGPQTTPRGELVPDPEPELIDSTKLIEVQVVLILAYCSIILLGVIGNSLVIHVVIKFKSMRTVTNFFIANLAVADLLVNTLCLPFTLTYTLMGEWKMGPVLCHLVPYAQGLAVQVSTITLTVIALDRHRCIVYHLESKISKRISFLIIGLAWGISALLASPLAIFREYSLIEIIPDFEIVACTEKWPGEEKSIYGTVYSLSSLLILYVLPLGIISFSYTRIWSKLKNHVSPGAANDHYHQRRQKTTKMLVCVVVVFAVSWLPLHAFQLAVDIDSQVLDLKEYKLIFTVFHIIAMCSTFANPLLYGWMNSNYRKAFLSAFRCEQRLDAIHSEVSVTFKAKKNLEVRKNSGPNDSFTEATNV

HEK293 = experiment: Fluorescence-based counterscreen for potentiators or agonists of NPY-Y1: cell-based high-throughput dose response assay for inhibitors of cyclic nucleotide gated ion channel (CNGC) activity. In this assay, the parental HEK293 cell line transfected with a cyclic-nucleotide gated ion channel (CNGC)-based cAMP sensor is used to measure inhibition of isoproterenol-induced CNGC …; conditions: Homo sapiens
[6] = molecular target: Neuropeptide Y receptor type 1 (Homo sapiens, UniProt P25929); experiment: Fluorescence-based dose response cell-based high-throughput screening assay for agonists of NPY-Y1. [Related pubchem assays: 1697 (Screening assay (NPY-Y1 agonists).), 1359 (Screening assay (NPY-Y2 potentiators or agonists).), 1304 (Screening assay (NPY-Y1 potentiators or agonists).), 1704 (Screening assay (CNGC inhibitors).), 1791 (Summary AID.)]
Chain of Neuropeptide Y receptor type 1 (P25929 whole entry): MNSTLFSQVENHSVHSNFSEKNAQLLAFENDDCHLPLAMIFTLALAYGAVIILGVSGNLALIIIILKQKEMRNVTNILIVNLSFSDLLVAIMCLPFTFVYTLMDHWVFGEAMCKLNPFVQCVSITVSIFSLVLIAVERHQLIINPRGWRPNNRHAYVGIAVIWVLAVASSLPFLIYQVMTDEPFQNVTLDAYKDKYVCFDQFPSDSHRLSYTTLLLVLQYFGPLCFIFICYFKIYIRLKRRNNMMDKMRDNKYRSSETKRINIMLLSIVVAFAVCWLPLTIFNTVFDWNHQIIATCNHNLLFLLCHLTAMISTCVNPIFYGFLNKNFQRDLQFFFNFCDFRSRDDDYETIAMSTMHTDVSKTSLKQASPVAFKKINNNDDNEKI

EC50 [1]: > 30 µM (not active)
SMILES: COCCNC(=O)CN(C)CC(=O)c1cc(C)n(Cc2ccccc2)c1C

AC50 [2]: 9.69 µM (active) | EC50 [3]: 9.38 µM (active)
SMILES: CC1=C(C#N)C(=O)N(CCO)C(=O)/C1=N/Nc1ccc2c(c1)COC2=O
EC50 [4]: > 100 µM (active)

EC50 (Oxytocin receptor): > 29.9 µM (not active)
SMILES: Sc1nnc(-c2ccncc2)n1/N=C/c1cn(-c2ccccc2)nc1-c1ccccc1

SMILES: CN(C)Cc1c(O)ccc2oc(Cc3ccccc3)cc12
EC50 [5]: > 35.4 µM (not active) | IC50 (HEK293): > 35.4 µM (not active) | EC50 [6]: 14.7 µM (not active)
